This is an account of results in the Biogen ADME set (Fang et al. 2023).

The structures appear in SMILES notation. In brackets after ≈: the same amount, converted by molar mass. Some results are limits rather than exact numbers.

For this data set the following is noted: for aqueous solubility: pH 6.8.

`COC(=O)c1ccc2c(c1)CCN2S(=O)(=O)c1ccc(Cl)c(C(F)(F)F)c1`: the aqueous solubility stood at 0.0009 mg/mL (≈ 2.14 µM).

The compound `Cn1ccc2c(NC(=O)N3CCCN(C(=O)Oc4ccccc4)CC3)cccc21` returned an intrinsic clearance, human liver microsomes of 2.51 L/h/kg; an intrinsic clearance, rat liver microsomes of 46.6 L/h/kg; an aqueous solubility of 0.0719 mg/mL (≈ 183 µM).

Turning to `O=C(c1ccc2oc(CCCc3ccccc3)nc2c1)N1CCC(Oc2cccnc2)CC1`, the MDR1-MDCK efflux ratio stood at 1.48; the intrinsic clearance, human liver microsomes turned out to be 40.7 L/h/kg; the intrinsic clearance, rat liver microsomes came to 125 L/h/kg; the aqueous solubility amounted to 0.0243 mg/mL (≈ 55 µM).

As for `O=C1CCC(=O)N1CCSc1ncc(-c2ccc(F)cc2)[nH]1`, the MDR1-MDCK efflux ratio worked out at 2.4; the intrinsic clearance, human liver microsomes was 2.14 L/h/kg; the intrinsic clearance, rat liver microsomes worked out at 43 L/h/kg.

Regarding `COc1ccc(/C=C/C(=O)c2c(C)nc3ccccc3c2N)c(OC)c1`, the intrinsic clearance, human liver microsomes stood at 2.6 L/h/kg; the intrinsic clearance, rat liver microsomes worked out at 48.8 L/h/kg; the aqueous solubility worked out at 0.0406 mg/mL (≈ 117 µM).

For `CN1CCCN(C(=O)NCCOc2ccc3c(c2)OCO3)CC1`, the MDR1-MDCK efflux ratio is 19.9; the intrinsic clearance, human liver microsomes is not above 0.284 L/h/kg; the intrinsic clearance, rat liver microsomes is 1.22 L/h/kg; the aqueous solubility is 0.07 mg/mL (≈ 218 µM).

Consider `Cc1cccn(Cc2cccnc2)c1=O`, for which the MDR1-MDCK efflux ratio was determined as 0.609; the intrinsic clearance, human liver microsomes was not above 0.284 L/h/kg; the intrinsic clearance, rat liver microsomes was not above 0.64 L/h/kg; the aqueous solubility stood at 0.047 mg/mL (≈ 235 µM).

`Cc1cc(C)nc(SCC(=O)N2c3ccccc3C(C)(c3ccccc3)CC2(C)C)n1` (centres undefined) had an intrinsic clearance, human liver microsomes of 142 L/h/kg and an intrinsic clearance, rat liver microsomes of 188 L/h/kg.

With `Cc1ccc(-n2cc(C(=O)NCCN(C)C)nn2)cc1C`, the MDR1-MDCK efflux ratio came out at 3.18; the intrinsic clearance, human liver microsomes is not above 0.284 L/h/kg; the intrinsic clearance, rat liver microsomes worked out at 11.3 L/h/kg; the aqueous solubility was 0.0284 mg/mL (≈ 98.9 µM).

As to `O=C(NCc1ccc(F)cc1)C1CCN(C(=O)/C=C/c2ccc(F)cc2)CC1`, the MDR1-MDCK efflux ratio is 6.14; the intrinsic clearance, human liver microsomes is not above 0.284 L/h/kg; the intrinsic clearance, rat liver microsomes turned out to be 6.35 L/h/kg; the aqueous solubility is 0.00303 mg/mL (≈ 7.88 µM).

Consider `Cc1n[nH]c(C2CCN(C(=O)NC3CCN(c4ccc(F)cc4)CC3)CC2)n1`, for which the MDR1-MDCK efflux ratio worked out at 22.9; the intrinsic clearance, human liver microsomes is not above 0.284 L/h/kg; the intrinsic clearance, rat liver microsomes was 2.3 L/h/kg.

As to `N#Cc1c(F)cccc1Oc1cccnc1`, the MDR1-MDCK efflux ratio was 0.634; the intrinsic clearance, human liver microsomes is not above 0.284 L/h/kg; the intrinsic clearance, rat liver microsomes was 1.81 L/h/kg.

Compound `N#Cc1cc(N2CC(CO)C2)nc2ccc(Cl)cc12` showed an intrinsic clearance, human liver microsomes of 4.14 L/h/kg and an intrinsic clearance, rat liver microsomes of 7.28 L/h/kg.

As for `Cc1nccc(-c2cccc(NCC(=O)NCc3ccccc3)c2)n1`, the intrinsic clearance, human liver microsomes is 3.77 L/h/kg and the intrinsic clearance, rat liver microsomes was found to be 39.2 L/h/kg.

Take `COCCNc1cc(NC(=O)N2CCCc3cc(CN4CCN(C)CC4=O)c(C=O)nc32)ncc1C#N`: the MDR1-MDCK efflux ratio amounted to 46; the intrinsic clearance, human liver microsomes was 0.865 L/h/kg; the intrinsic clearance, rat liver microsomes was found to be 1.44 L/h/kg; the aqueous solubility turned out to be 0.02 mg/mL (≈ 39.5 µM).

Turning to `CN1CCN(S(=O)(=O)c2ccc(-c3cnc(N)c(C(=O)Nc4cccnc4)n3)cc2)CC1`, the MDR1-MDCK efflux ratio was 72.4; the fraction unbound, human plasma was 0.12; the fraction unbound, rat plasma is 0.0823; the intrinsic clearance, human liver microsomes was 7.47 L/h/kg. Further, the intrinsic clearance, rat liver microsomes came out at 40.3 L/h/kg.

In the case of `Cc1cc(Nc2ccccn2)cc(C2CCCN(CC(=O)Nc3ncc(C)s3)C2)n1` (centres undefined), the MDR1-MDCK efflux ratio worked out at 36.3; the intrinsic clearance, human liver microsomes is 3.58 L/h/kg; the intrinsic clearance, rat liver microsomes came to 57.4 L/h/kg; the aqueous solubility amounted to 0.0655 mg/mL (≈ 155 µM).

Take `OC[C@@H](c1ccccc1)n1cc(CCc2ccccc2)nn1`: the MDR1-MDCK efflux ratio was 0.889; the intrinsic clearance, human liver microsomes worked out at 1.48 L/h/kg; the intrinsic clearance, rat liver microsomes turned out to be 41.6 L/h/kg; the aqueous solubility came to 0.014 mg/mL (≈ 47.9 µM).

In the case of `CO[C@H]1COCCN(C(=O)c2cccnc2)C1`, the MDR1-MDCK efflux ratio amounted to 1.2; the intrinsic clearance, human liver microsomes is not above 0.284 L/h/kg; the intrinsic clearance, rat liver microsomes is not above 0.64 L/h/kg; the aqueous solubility worked out at 0.0348 mg/mL (≈ 147 µM).

`Cc1nc(NCc2cn(C)nc2-c2cccs2)n(C)n1`: the MDR1-MDCK efflux ratio is 12.7; the intrinsic clearance, human liver microsomes was not above 0.284 L/h/kg; the intrinsic clearance, rat liver microsomes was found to be 1.67 L/h/kg.

For `CC(C)c1nc2c(n1C)CCN(c1ncnc3ccccc13)C2`, the MDR1-MDCK efflux ratio is 4.31; the intrinsic clearance, human liver microsomes stood at 2.1 L/h/kg; the intrinsic clearance, rat liver microsomes worked out at 24.1 L/h/kg; the aqueous solubility worked out at 0.0535 mg/mL (≈ 174 µM).

For `CCn1c(=O)oc2cc(NC(=O)c3ccc(C(C)(C)C)cc3)ccc21`, the MDR1-MDCK efflux ratio turned out to be 0.34; the fraction unbound, human plasma came out at 0.0162; the fraction unbound, rat plasma amounted to 0.0151.

As for `COc1ccccc1C(=O)Nc1cccc(C#N)c1`, the MDR1-MDCK efflux ratio came to 0.246; the intrinsic clearance, human liver microsomes was found to be 5.13 L/h/kg; the intrinsic clearance, rat liver microsomes worked out at 4.86 L/h/kg; the aqueous solubility is 0.033 mg/mL (≈ 131 µM).

Compound `CCN(CC)CC(=O)N1CCC(n2c(=O)[nH]c3ccccc32)CC1` came in with an intrinsic clearance, human liver microsomes not above 0.284 L/h/kg; an intrinsic clearance, rat liver microsomes of 1.41 L/h/kg; an aqueous solubility of 0.0489 mg/mL (≈ 148 µM).

With `CCn1nc(C2CCCC2)nc1-c1ccncc1`, the MDR1-MDCK efflux ratio worked out at 0.716; the intrinsic clearance, human liver microsomes was 1.47 L/h/kg; the intrinsic clearance, rat liver microsomes amounted to 22.2 L/h/kg; the aqueous solubility came to 0.027 mg/mL (≈ 111 µM).

As to `CCOc1ccc(Nc2ncccc2C#N)cc1`, the intrinsic clearance, human liver microsomes amounted to 5.98 L/h/kg; the intrinsic clearance, rat liver microsomes is 19.1 L/h/kg; the aqueous solubility stood at 0.00923 mg/mL (≈ 38.6 µM).

As to `CN1CC[C@@H](c2c(O)cc(O)c3c(=O)cc(-c4ccccc4Cl)oc23)[C@@H]1CO`, the MDR1-MDCK efflux ratio worked out at 122; the intrinsic clearance, human liver microsomes was found to be 1.62 L/h/kg; the intrinsic clearance, rat liver microsomes was determined as 8.52 L/h/kg; the aqueous solubility was 0.0649 mg/mL (≈ 162 µM).

As for `COc1cccc([C@@H](C)n2cnc3cn(C)nc3c2=O)c1`, the MDR1-MDCK efflux ratio stood at 1.44; the intrinsic clearance, human liver microsomes is not above 0.284 L/h/kg; the intrinsic clearance, rat liver microsomes stood at 4.03 L/h/kg.

As to `CC(C)CC(=O)N1CCC(Cc2cccc(-c3cncnc3)c2)(C(=O)NC(C)C)CC1`, the MDR1-MDCK efflux ratio came out at 71.8; the intrinsic clearance, human liver microsomes came to 12 L/h/kg; the intrinsic clearance, rat liver microsomes was determined as 41.6 L/h/kg; the aqueous solubility came to 0.137 mg/mL (≈ 324 µM).

Turning to `COCC(=O)Nc1ccc(C)c(NC(=O)[C@H](OC)c2ccccc2)c1`, the MDR1-MDCK efflux ratio was found to be 2.8; the intrinsic clearance, human liver microsomes amounted to 5.11 L/h/kg; the intrinsic clearance, rat liver microsomes was 2.7 L/h/kg.

For `CC(C)n1cc(-c2ccc3c(c2)N(C)CC3)c2c(NS(=O)(=O)c3ccn(C)n3)ccnc21`, the MDR1-MDCK efflux ratio was 2.48; the intrinsic clearance, human liver microsomes amounted to 4.17 L/h/kg; the intrinsic clearance, rat liver microsomes was 6.91 L/h/kg; the aqueous solubility was 0.0194 mg/mL (≈ 43.1 µM).

As for `Cc1cc2ncn(CC(=O)NC(C)(C)C)c2cc1C`, the MDR1-MDCK efflux ratio worked out at 5.53; the intrinsic clearance, human liver microsomes is not above 0.284 L/h/kg; the intrinsic clearance, rat liver microsomes is 4.2 L/h/kg; the aqueous solubility worked out at 0.0391 mg/mL (≈ 151 µM).

What is called aqueous solubility is the concentration that dissolves in the medium under given conditions. Higher therefore signals much dissolved substance.
